Measurements reported in patent US20220105150A1, “AMPHIPATHIC ALPHA-HELICAL ANTIMICROBIAL PEPTIDES TREAT INFECTIONS BY GRAM-NEGATIVE PATHOGENS” (priority 2019, published 2022).
Values after ≈ are worked out from the molar mass of the structure shown. Square brackets hold non-standard residues; d marks the D form. Peptide text beside a SMILES is read from it. Dab = NCC[C@H](N)C(=O)O

system: Acinetobacter baumannii strains resistant to Polymyxin B and Colistin; conditions: strains resistant to Polymyxin B and Colistin, 24 h
Text: The coupling procedure used 5 equivalents of Fmoc-D-amino acid or Fmoc-L-amino acid and HCTU (O-(1H-6-chlorobenzotriazole-1-yl)-1,1,3,3-tetramethyluronium hexafluorophosphate) and 6-Cl-HOBt (1-hydroxy-6-chloro-benztriazole) at 4.5 equivalents in DMF (Fisher Scientific, Denver, Colo.) and N-diisopropylethylamine (DIPEA) 10 equivalents (Oakwood Products, Inc., Estill, S.C.) in N-methyl-2-pyrrolidinone (NMP) (Fisher Scientific, Denver, Colo.) with the first and second couplings at room temperature for 30 min each. The deprotection procedure (removal of Fmoc protecting group) was carried out by treatment of the resin with 0.1 M HOBt (1-hydroxybenzotriazole) in DMF with 20% piperidine for 30 min. […] The resin was removed by filtration and peptide was precipitated with ice-cooled ethyl ether on ice for 15 min. Ether was decanted, the peptide was washed twice with ether and redissolved in acetonitrile/water (1:1, with 0.2% TFA) and the solution lyophilized to obtain the crude peptide. • Analytical and Preparative Purification by Reversed-Phase Chromatography: Analytical RP-HPLC: Column, Luna C18 (2), 250×4.6 mm I.D., 5 μm particle size, 100 Å pore size from Phenomenex (Torrance, Calif.). Run conditions: linear AB gradient (1% acetonitrile/min, starting from 2% acetonitrile) at a flow-rate of 1 ml/min, where eluent A is 0.2% aq. TFA and eluent B is 0.18% TFA in acetonitrile; temperature, 30° C. Preparative RP-HPLC: Peptides were dissolved in 0.2% aq. TFA containing 2% acetonitrile to a final concentration of 10 mg/ml. Following filtration through a 0.45 μm Millipore filter and subsequently through a 0.22 μm filter, the peptide solutions were loaded onto the column via multiple 20-ml injections into a 20-ml injection loop at a flow-rate of 10 ml/min. Column, Luna C18 (2), 250×30 mm I.D., 5 um particle size, 100 Å pore size from Phenomenex. Run conditions: 2% acetonitrile/min gradient up to an acetonitrile concentration 10% below that required to elute the peptide during analytical RP-HPLC, then shallow gradient elution (0.05% or 0.1% acetonitrile/min depending on the complexity of impurities near the product of interest on the analytical run of the crude peptide) at a flow-rate of 10 ml/min (same eluents as shown above for analytical RP-HPLC); at room temperature. • Temperature Profiling of Peptides on Reversed-phase HPLC to Measure Dimerization and Oligomerization: Purified peptides were analyzed on an Agilent 1200 series liquid chromatograph for temperature profiling using a Zorbax 300 SB-C8 column (150 mm×2.1 mm I.D.; 5 μm particle size, 300 Å pore size) from Agilent Technologies. […] Temperature profiling was carried out on peptide mixtures run at each temperature in 2° C. increments from 5° C. to 41° C. and 10° C. increments from 5° C. to 75° C. Twenty minutes was allowed between runs for temperature equilibration. • Characterization of Helical Structure: The mean residue molar ellipticities of peptides were determined by circular dichroism (CD) spectroscopy, using a Jasco J-815 spectropolarimeter (Jasco Inc. Easton, Md., USA) at 5° C. under KP buffer (50 mM NaH2PO4/Na2HPO4/100 mM KCl, pH 7.0) as well as in the presence of an α-helix inducing solvent, 2,2,2-trifluoroethanol, TFE, (50 mM NaH2PO4/Na2HPO4/100 mM KCl, pH 7.0 buffer/50% TFE). A 10-fold dilution of an approximately 500 μM stock solution of the peptide analogs was loaded into a 0.1 cm quartz cell and its ellipticity scanned from 195 to 250 nm.

| MIC MB9941 | MIC MB9949 | MIC MB9951 | MIC MB9952 | MIC MB9953 | MIC MB9955 | MIC MB9963 | Compound |
| --- | --- | --- | --- | --- | --- | --- | --- |
| 0.7 µM (≈ 1.89 µg/mL) | 0.7 µM (≈ 1.89 µg/mL) | 0.7 µM (≈ 1.89 µg/mL) | 0.7 µM (≈ 1.89 µg/mL) | 0.7 µM (≈ 1.89 µg/mL) | 0.7 µM (≈ 1.89 µg/mL) | 0.7 µM (≈ 1.89 µg/mL) | CC(=O)N[C@H](CCCCN)C(=O)N[C@H](CC(C)C)C(=O)N[C@@H](CCN)C(=O)N[C@H](CO)C(=O)N[C@H](CC(C)C)C(=O)N[C@H](CC(C)C)C(=O)N[C@@H](CCN)C(=O)N[C@@H](C(=O)N[C@H](CC(C)C)C(=O)N[C@H](CO)C(=O)N[C@H](C)C(=O)N[C@H](C)C(=O)N[C@H](CCCCN)C(=O)N[C@@H](CCN)C(=O)N[C@@H](CCN)C(=O)N[C@H](CCCCN)C(=O)N[C@H](CC(C)C)C(=O)N[C@H](C)C(=O)N[C@@H](C(=O)N[C@H](CC(C)C)C(=O)N[C@H](CC(C)C)C(=O)N[C@@H](CCN)C(=O)N[C@H](C)C(=O)N[C@H](CC(C)C)C(=O)N[C@H](CO)C(=O)N[C@@H](CCN)C(N)=O)[C@H](C)O)[C@H](C)O [D89(Lys^1-6 Dab-2), Ac-KL(L-Dab)SLL(L-Dab)TLSAAK(L-Dab)(L-Dab)KLATLL(L-Dab)ALS(L-Dab)-amide] (Ac-[dK][dL][Dab][dS][dL][dL][Dab][dT][dL][dS][dA][dA][dK][Dab][Dab][dK][dL][dA][dT][dL][dL][Dab][dA][dL][dS][Dab]-NH2) |
| 0.7 µM (≈ 1.98 µg/mL) | 0.7 µM (≈ 1.98 µg/mL) | 0.7 µM (≈ 1.98 µg/mL) | 0.7 µM (≈ 1.98 µg/mL) | 0.7 µM (≈ 1.98 µg/mL) | 0.7 µM (≈ 1.98 µg/mL) | 0.7 µM (≈ 1.98 µg/mL) | CC(=O)N[C@H](CCCCN)C(=O)N[C@H](CC(C)C)C(=O)N[C@H](CCCCN)C(=O)N[C@H](CO)C(=O)N[C@H](CC(C)C)C(=O)N[C@H](CC(C)C)C(=O)N[C@H](CCCCN)C(=O)N[C@@H](C(=O)N[C@H](CC(C)C)C(=O)N[C@H](CO)C(=O)N[C@H](C)C(=O)N[C@H](C)C(=O)N[C@H](CCCCN)C(=O)N[C@H](CCCCN)C(=O)N[C@H](CCCCN)C(=O)N[C@H](CCCCN)C(=O)N[C@H](CC(C)C)C(=O)N[C@H](C)C(=O)N[C@@H](C(=O)N[C@H](CC(C)C)C(=O)N[C@H](CC(C)C)C(=O)N[C@H](CCCCN)C(=O)N[C@H](C)C(=O)N[C@H](CC(C)C)C(=O)N[C@H](CO)C(=O)N[C@H](CO)C(N)=O)[C@H](C)O)[C@H](C)O [D103(Lys^1Ser^26-5 Lys-2), Ac-KL(Lys)SLL(Lys)TLSAAK(Lys)(Lys)KLATLL(Lys)ALS(Ser)-amide] (Ac-[dK][dL][dK][dS][dL][dL][dK][dT][dL][dS][dA][dA][dK][dK][dK][dK][dL][dA][dT][dL][dL][dK][dA][dL][dS][dS]-NH2) |
| 0.7 µM (≈ 1.88 µg/mL) | 0.7 µM (≈ 1.88 µg/mL) | 0.7 µM (≈ 1.88 µg/mL) | 0.7 µM (≈ 1.88 µg/mL) | 1.5 µM (≈ 4.03 µg/mL) | 0.7 µM (≈ 1.88 µg/mL) | 0.7 µM (≈ 1.88 µg/mL) | CC(=O)N[C@H](CCCCN)C(=O)N[C@H](CC(C)C)C(=O)N[C@@H](CCN)C(=O)N[C@H](CO)C(=O)N[C@H](CC(C)C)C(=O)N[C@H](CC(C)C)C(=O)N[C@@H](CCN)C(=O)N[C@@H](C(=O)N[C@H](CC(C)C)C(=O)N[C@H](CO)C(=O)N[C@H](C)C(=O)N[C@H](C)C(=O)N[C@H](CCCCN)C(=O)N[C@@H](CCN)C(=O)N[C@@H](CCN)C(=O)N[C@H](CCCCN)C(=O)N[C@H](CC(C)C)C(=O)N[C@H](C)C(=O)N[C@@H](C(=O)N[C@H](CC(C)C)C(=O)N[C@H](CC(C)C)C(=O)N[C@@H](CCN)C(=O)N[C@H](C)C(=O)N[C@H](CC(C)C)C(=O)N[C@H](CO)C(=O)N[C@H](CO)C(N)=O)[C@H](C)O)[C@H](C)O [D104(Lys^1Ser^26-5 Dab-2), Ac-KL(L-Dab)SLL(L-Dab)TLSAAK(L-Dab)(L-Dab)KLATLL(L-Dab)ALS(Ser)-amide] (Ac-[dK][dL][Dab][dS][dL][dL][Dab][dT][dL][dS][dA][dA][dK][Dab][Dab][dK][dL][dA][dT][dL][dL][Dab][dA][dL][dS][dS]-NH2) |

The remaining lines, values behind:

| Compound | MIC MB9941 | MIC MB9949 | MIC MB9951 | MIC MB9952 | MIC MB9953 | MIC MB9955 | MIC MB9963 |
| --- | --- | --- | --- | --- | --- | --- | --- |
| CC(=O)N[C@H](CCCCN)C(=O)N[C@H](CC(C)C)C(=O)N[C@H](CCCN)C(=O)N[C@H](CO)C(=O)N[C@H](CC(C)C)C(=O)N[C@H](CC(C)C)C(=O)N[C@H](CCCN)C(=O)N[C@@H](C(=O)N[C@H](CC(C)C)C(=O)N[C@H](CO)C(=O)N[C@H](CCCN)C(=O)N[C@H](C)C(=O)N[C@H](CCCCN)C(=O)N[C@H](C)C(=O)N[C@H](C)C(=O)N[C@H](CCCCN)C(=O)N[C@H](CC(C)C)C(=O)N[C@H](CCCN)C(=O)N[C@@H](C(=O)N[C@H](CC(C)C)C(=O)N[C@H](CC(C)C)C(=O)N[C@H](CCCN)C(=O)N[C@H](C)C(=O)N[C@H](CC(C)C)C(=O)N[C@H](CO)C(=O)N[C@H](CCCN)C(N)=O)[C@H](C)O)[C@H](C)O [D85(Lys^1-6Orn-1), Ac-KL(Orn)SLL(Orn)TLS(Orn)AKAAKL(Orn)TLL(Orn)ALS(Orn)-amide] | 0.7 µM (≈ 1.95 µg/mL) | 0.7 µM (≈ 1.95 µg/mL) | 0.7 µM (≈ 1.95 µg/mL) | 0.4 µM (≈ 1.11 µg/mL) | 0.4 µM (≈ 1.11 µg/mL) | 0.4 µM (≈ 1.11 µg/mL) | 0.4 µM (≈ 1.11 µg/mL) |
| CC(=O)N[C@H](CCCCN)C(=O)N[C@H](CC(C)C)C(=O)N[C@H](CCCNC(=N)N)C(=O)N[C@H](CO)C(=O)N[C@H](CC(C)C)C(=O)N[C@H](CC(C)C)C(=O)N[C@H](CCCNC(=N)N)C(=O)N[C@@H](C(=O)N[C@H](CC(C)C)C(=O)N[C@H](CO)C(=O)N[C@H](CCCNC(=N)N)C(=O)N[C@H](C)C(=O)N[C@H](CCCCN)C(=O)N[C@H](C)C(=O)N[C@H](C)C(=O)N[C@H](CCCCN)C(=O)N[C@H](CC(C)C)C(=O)N[C@H](CCCNC(=N)N)C(=O)N[C@@H](C(=O)N[C@H](CC(C)C)C(=O)N[C@H](CC(C)C)C(=O)N[C@H](CCCNC(=N)N)C(=O)N[C@H](C)C(=O)N[C@H](CC(C)C)C(=O)N[C@H](CO)C(=O)N[C@H](CCCNC(=N)N)C(N)=O)[C@H](C)O)[C@H](C)O [D87(Lys^1-6Arg-1), Ac-KL(Arg)SLL(Arg)TLS(Arg)AKAAKL(Arg)TLL(Arg)ALS(Arg)-amide] | 1.3 µM (≈ 3.94 µg/mL) | 1.3 µM (≈ 3.94 µg/mL) | 0.7 µM (≈ 2.12 µg/mL) | 0.7 µM (≈ 2.12 µg/mL) | 0.7 µM (≈ 2.12 µg/mL) | 0.7 µM (≈ 2.12 µg/mL) | 0.7 µM (≈ 2.12 µg/mL) |
| CC(=O)N[C@H](CCCCN)C(=O)N[C@H](CC(C)C)C(=O)N[C@H](CCCCN)C(=O)N[C@H](CO)C(=O)N[C@H](CC(C)C)C(=O)N[C@H](CC(C)C)C(=O)N[C@H](CCCCN)C(=O)N[C@@H](C(=O)N[C@H](CC(C)C)C(=O)N[C@H](CO)C(=O)N[C@H](C)C(=O)N[C@H](C)C(=O)N[C@H](CCCCN)C(=O)N[C@H](CCCCN)C(=O)N[C@H](CCCCN)C(=O)N[C@H](CCCCN)C(=O)N[C@H](CC(C)C)C(=O)N[C@H](C)C(=O)N[C@@H](C(=O)N[C@H](CC(C)C)C(=O)N[C@H](CC(C)C)C(=O)N[C@H](CCCCN)C(=O)N[C@H](C)C(=O)N[C@H](CC(C)C)C(=O)N[C@H](CO)C(=O)N[C@H](CCCCN)C(N)=O)[C@H](C)O)[C@H](C)O [D88(Lys^1-6 Lys-2), Ac-KL(Lys)SLL(Lys)TLSAAK(Lys)(Lys)KLATLL(Lys)ALS(Lys)-amide] (Ac-[dK][dL][dK][dS][dL][dL][dK][dT][dL][dS][dA][dA][dK][dK][dK][dK][dL][dA][dT][dL][dL][dK][dA][dL][dS][dK]-NH2) | 0.7 µM (≈ 2.01 µg/mL) | 0.7 µM (≈ 2.01 µg/mL) | 0.3 µM (≈ 0.86 µg/mL) | 0.3 µM (≈ 0.86 µg/mL) | 0.3 µM (≈ 0.86 µg/mL) | 0.3 µM (≈ 0.86 µg/mL) | 0.4 µM (≈ 1.15 µg/mL) |
